{"source": "patent US9770023B2", "about": "“Active compound combinations comprising phenylamidine compounds and further fungicides” (BAYER CROPSCIENCE AKTIENGESELLSCHAFT, priority 2014, dated 2017)", "key": {"Septoria tritici": {"test_system": "Septoria tritici", "test": "in vivo preventive Septoria tritici test (wheat)", "protocol": "(§1) [table] To produce a suitable preparation of active compound, 1 part by weight of active compound or active compound combination is mixed with the stated amounts of solvent and emulsifier, and the concentrate is diluted with water to the desired concentration. To test for preventive activity, young plants are sprayed with the preparation of active compound or active compound combination at the stated rate of application. After the spray coating has been dried, the plants are sprayed with a spore suspension of Septoria tritici. The plants remain for 48 hours in an incubation cabinet at approximately 20° C. and a relative atmospheric humidity of approximately 100% and afterwards for 60 hours at approximately 15° C. in a translucent incubation cabinet at a relative atmospheric humidity of approximately 100%. The plants are placed in the greenhouse at a temperature of approximately 15° C. and a relative atmospheric humidity of approximately 80%. The test is evaluated 21 days after the inoculation. 0% means an efficacy which corresponds to that of the untreated control, while an efficacy of 100% means that no disease is observed."}, "Pyrenophora teres": {"test_system": "Pyrenophora teres", "test": "in vivo preventive Pyrenophora teres test (barley)", "conditions": "Table F1, 8 days after inoculation", "protocol": "as §1, with “Pyrenophora teres.” for “Septoria tritici.”, “approximately” for “approximately 100% and afterwards for 60 hours at approximately 15° C. in a translucent incubation cabinet at a relative atmospheric humidity of approximately”, “20°” for “15°”, “8” for “21”"}, "Alternaria solani": {"test_system": "Alternaria solani", "test": "in vivo preventive test on Alternaria test (tomatoes)", "protocol": "[table] To produce a suitable preparation of active compound, 1 part by weight of active compound is mixed with the stated amounts of solvent and emulsifier, and the concentrate is diluted with water to the desired concentration. To test for preventive activity, young plants are sprayed with the preparation of active compound at the stated rate of application. After the spray coating has dried on, the plants are inoculated with an aqueous spore suspension of Alternaria solani. The plants are then placed in an incubation cabinet at approximately 20° C. and a relative atmospheric humidity of 100%. The test is evaluated 3 days after the inoculation. 0% means an efficacy which corresponds to that of the untreated control while an efficacy of 100% means that no disease is observed."}, "Phakopsora pachyrhizi": {"test_system": "Phakopsora pachyrhizi", "test": "in vivo preventive test on Phakopsora test (soybeans)", "protocol": "To produce a suitable preparation of active compound, 1 part by weight of active compound is mixed with the stated amounts of solvent and emulsifier, and the concentrate is diluted with water to the desired concentration. To test for preventive activity, young plants are sprayed with the preparation of active compound at the stated rate of application. After the spray coating has dried on, the plants are inoculated with an aqueous spore suspension of the causal agent of soybean rust (Phakopsora pachyrhizi) and stay for 24 h without light in an incubation cabinet at approximately 24° C. and a relative atmospheric humidity of 95%. The plants remain in the incubation cabinet at approximately 24° C. and a relative atmospheric humidity of approximately 80% and a day/night interval of 12 h.\nThe test is evaluated 7 days after the inoculation. 0% means an efficacy which corresponds to that of the untreated control, while an efficacy of 100% means that no disease is observed."}, "Puccinia triticina": {"test_system": "Puccinia triticina", "test": "in vivo preventive Puccinia triticina test (wheat)", "conditions": "Table E1, 8 days after inoculation", "protocol": "To produce a suitable preparation of active compound, 1 part by weight of active compound or active compound combination is mixed with the stated amounts of solvent and emulsifier, and the concentrate is diluted with water to the desired concentration.\nTo test for preventive activity, young plants are sprayed with the preparation of active compound or active compound combination at the stated rate of application. After the spray coating has been dried, the plants are sprayed with a spore suspension of Puccinia triticina. The plants remain for 48 hours in an incubation cabinet at approximately 20° C. and a relative atmospheric humidity of approximately 100%. The plants are placed in the greenhouse at a temperature of approximately 20° C. and a relative atmospheric humidity of approximately 80%.\nThe test is evaluated 8 days after the inoculation. 0% means an efficacy which corresponds to that of the untreated control, while an efficacy of 100% means that no disease is observed."}, "[1]": {"test_system": "Blumeria graminis f.sp. hordei", "test": "in vivo preventive Blumeria test (barley)", "protocol": "[table] To produce a suitable preparation of active compound, 1 part by weight of active compound or active compound combination is mixed with the stated amounts of solvent and emulsifier, and the concentrate is diluted with water to the desired concentration. To test for preventive activity, young plants are sprayed with the preparation of active compound or active compound combination at the stated rate of application. After the spray coating has been dried, the plants are dusted with spores of Blumeria graminis f.sp. hordei. The plants are placed in the greenhouse at a temperature of approximately 18° C. and a relative atmospheric humidity of approximately 80% to promote the development of mildew pustules. The test is evaluated 7 days after the inoculation. 0% means an efficacy which corresponds to that of the untreated control, while an efficacy of 100% means that no disease is observed."}, "Leptosphaeria nodorum": {"test_system": "Leptosphaeria nodorum", "test": "in vivo preventive Leptosphaeria nodorum test (wheat)", "conditions": "Table C1, 8 days after inoculation", "protocol": "as §1, with “Leptosphaeria nodorum.” for “Septoria tritici.”, “approximately” for “approximately 100% and afterwards for 60 hours at approximately 15° C. in a translucent incubation cabinet at a relative atmospheric humidity of approximately”, “25°” for “15°”, “8” for “21”"}, "[2]": {"conditions": "Table G2, 21 days after inoculation, 40 ppm a.i."}, "[3]": {"conditions": "Table D2, 7 days after inoculation, 0.5 ppm a.i."}, "[4]": {"conditions": "Table D2, 7 days after inoculation, 1 ppm a.i."}, "[5]": {"conditions": "Table G1, 21 days after inoculation, 20 ppm a.i."}, "[6]": {"conditions": "Table A2, 3 days after inoculation, 2 ppm a.i."}, "[7]": {"conditions": "Table A2, 3 days after inoculation, 4 ppm a.i."}, "[8]": {"conditions": "Table D3, 7 days after inoculation, 2 ppm a.i."}, "[9]": {"conditions": "Table B2, 7 days after inoculation, 10 ppm a.i."}, "[10]": {"conditions": "Table B2, 7 days after inoculation, 40 ppm a.i."}, "[11]": {"conditions": "Table A1, 3 days after inoculation, 1 ppm a.i."}, "[12]": {"conditions": "Table D3, 7 days after inoculation, 10 ppm a.i."}}, "data": [{"smiles": "Cn1cc(C(=O)Nc2cccc3c2[C@@H]2CC[C@H]3C2=C(Cl)Cl)c(C(F)F)n1", "note": "(racemic) [(B.6), benzovindiflupyr]", "values": [{"measurement": "Efficacy in % found", "setting": "Septoria tritici; [2]", "result": 38, "unit": "%"}, {"measurement": "Efficacy in % found", "setting": "Pyrenophora teres; 80 ppm a.i.", "result": 57, "unit": "%"}, {"measurement": "Efficacy in % found", "setting": "Alternaria solani; Table A2, 3 days after inoculation, 0.5 ppm a.i.", "result": 22, "unit": "%"}, {"measurement": "Efficacy in % found", "setting": "Phakopsora pachyrhizi; Table D2, 7 days after inoculation, 0.25 ppm a.i.", "result": 8, "unit": "%"}, {"measurement": "Efficacy in % found", "setting": "Phakopsora pachyrhizi; [3]", "result": 8, "unit": "%"}, {"measurement": "Efficacy in % found", "setting": "Phakopsora pachyrhizi; [4]", "result": 15, "unit": "%"}, {"measurement": "Efficacy in % found", "setting": "Puccinia triticina; 40 ppm a.i.", "result": 86, "unit": "%"}, {"measurement": "Efficacy in % found", "setting": "[1]; Table B1, 7 days after inoculation, 40 ppm a.i.", "result": 11, "unit": "%"}]}, {"smiles": "OC(Cc1ccccc1Cl)(Cn1nc[nH]c1=S)C1(Cl)CC1", "note": "(centres unmarked) [(A.3), prothioconazole]", "values": [{"measurement": "Efficacy in % found", "setting": "Septoria tritici; [5]", "result": 0, "unit": "%"}, {"measurement": "Efficacy in % found", "setting": "Alternaria solani; [6]", "result": 0, "unit": "%"}, {"measurement": "Efficacy in % found", "setting": "Alternaria solani; [7]", "result": 24, "unit": "%"}, {"measurement": "Efficacy in % found", "setting": "Phakopsora pachyrhizi; Table D3, 7 days after inoculation, 1 ppm a.i.", "result": 0, "unit": "%"}, {"measurement": "Efficacy in % found", "setting": "Phakopsora pachyrhizi; [8]", "result": 35, "unit": "%"}, {"measurement": "Efficacy in % found", "setting": "[1]; [9]", "result": 22, "unit": "%"}, {"measurement": "Efficacy in % found", "setting": "[1]; [10]", "result": 22, "unit": "%"}]}, {"smiles": "CC(C)(C)C(O)(CCc1ccc(Cl)cc1)Cn1cncn1", "note": "(centres unmarked) [(A.4), tebuconazole]", "values": [{"measurement": "Efficacy in % found", "setting": "Alternaria solani; [11]", "result": 0, "unit": "%"}, {"measurement": "Efficacy in % found", "setting": "Phakopsora pachyrhizi; Table D1, 7 days after inoculation, 0.1 ppm a.i.", "result": 0, "unit": "%"}, {"measurement": "Efficacy in % found", "setting": "Phakopsora pachyrhizi; Table D1, 7 days after inoculation, 0.2 ppm a.i.", "result": 30, "unit": "%"}]}, {"smiles": "Cn1cc(C(=O)Nc2ccc(F)cc2-c2ccc(Cl)c(Cl)c2)c(C(F)F)n1", "note": "[(B.1), bixafen]", "values": [{"measurement": "Efficacy in % found", "setting": "Septoria tritici; [2]", "result": 0, "unit": "%"}, {"measurement": "Efficacy in % found", "setting": "Alternaria solani; [11]", "result": 40, "unit": "%"}, {"measurement": "Efficacy in % found", "setting": "Phakopsora pachyrhizi; Table D1, 7 days after inoculation, 10 ppm a.i.", "result": 0, "unit": "%"}, {"measurement": "Efficacy in % found", "setting": "Phakopsora pachyrhizi; [12]", "result": 0, "unit": "%"}, {"measurement": "Efficacy in % found", "setting": "Leptosphaeria nodorum; 80 ppm a.i.", "result": 0, "unit": "%"}, {"measurement": "Efficacy in % found", "setting": "[1]; [10]", "result": 0, "unit": "%"}]}, {"smiles": "O=C(NCCc1ncc(C(F)(F)F)cc1Cl)c1ccccc1C(F)(F)F", "note": "[(B.2), fluopyram]", "values": [{"measurement": "Efficacy in % found", "setting": "Alternaria solani; [6]", "result": 30, "unit": "%"}, {"measurement": "Efficacy in % found", "setting": "[1]; [10]", "result": 11, "unit": "%"}]}, {"smiles": "Cn1cc(C(=O)Nc2ccccc2-c2cc(F)c(F)c(F)c2)c(C(F)F)n1", "note": "[(B.3), fluxapyroxad]", "values": [{"measurement": "Efficacy in % found", "setting": "Septoria tritici; [2]", "result": 13, "unit": "%"}, {"measurement": "Efficacy in % found", "setting": "Leptosphaeria nodorum; 40 ppm a.i.", "result": 14, "unit": "%"}]}, {"smiles": "CC(C)c1ccc(Cl)cc1CN(C(=O)c1c(C(F)F)nn(C)c1F)C1CC1", "note": "[(B.8), N-(5-chloro-2-isopropylbenzyl)-N-cyclopropyl-3-(difluoromethyl)-5-fluoro-1-methyl-1H-pyrazole-4-carboxamide]", "values": [{"measurement": "Efficacy in % found", "setting": "Septoria tritici; [5]", "result": 29, "unit": "%"}, {"measurement": "Efficacy in % found", "setting": "Alternaria solani; [11]", "result": 45, "unit": "%"}, {"measurement": "Efficacy in % found", "setting": "Phakopsora pachyrhizi; Table D1, 7 days after inoculation, 20 ppm a.i.", "result": 0, "unit": "%"}, {"measurement": "Efficacy in % found", "setting": "Phakopsora pachyrhizi; [12]", "result": 0, "unit": "%"}, {"measurement": "Efficacy in % found", "setting": "Leptosphaeria nodorum; 20 ppm a.i.", "result": 0, "unit": "%"}]}, {"smiles": "CO/C=C(/C(=O)OC)c1ccccc1Oc1cc(Oc2ccccc2C#N)ncn1", "note": "[(C.1), azoxystrobin]", "values": [{"measurement": "Efficacy in % found", "setting": "Septoria tritici; Table G2, 21 days after inoculation, 10 ppm a.i.", "result": 0, "unit": "%"}, {"measurement": "Efficacy in % found", "setting": "Pyrenophora teres; 20 ppm a.i.", "result": 71, "unit": "%"}, {"measurement": "Efficacy in % found", "setting": "Alternaria solani; Table A2, 3 days after inoculation, 1 ppm a.i.", "result": 46, "unit": "%"}, {"measurement": "Efficacy in % found", "setting": "Phakopsora pachyrhizi; [3]", "result": 20, "unit": "%"}, {"measurement": "Efficacy in % found", "setting": "Phakopsora pachyrhizi; [4]", "result": 68, "unit": "%"}, {"measurement": "Efficacy in % found", "setting": "Phakopsora pachyrhizi; Table D3, 7 days after inoculation, 0.5 ppm a.i.", "result": 23, "unit": "%"}, {"measurement": "Efficacy in % found", "setting": "Puccinia triticina; 10 ppm a.i.", "result": 71, "unit": "%"}]}, {"smiles": "CO/C=C(/C(=O)OC)c1ccccc1COc1cccc(C(F)(F)F)n1", "note": "[(C.2), picoxystrobin]", "values": [{"measurement": "Efficacy in % found", "setting": "Phakopsora pachyrhizi; Table D2, 7 days after inoculation, 2 ppm a.i.", "result": 30, "unit": "%"}, {"measurement": "Efficacy in % found", "setting": "[1]; Table B1, 7 days after inoculation, 20 ppm a.i.", "result": 44, "unit": "%"}]}, {"smiles": "COC(=O)N(OC)c1ccccc1COc1ccn(-c2ccc(Cl)cc2)n1", "note": "[(C.3), pyraclostrobin]", "values": [{"measurement": "Efficacy in % found", "setting": "Septoria tritici; [2]", "result": 88, "unit": "%"}, {"measurement": "Efficacy in % found", "setting": "Leptosphaeria nodorum; 40 ppm a.i.", "result": 57, "unit": "%"}]}, {"smiles": "CON=C(C(=O)OC)c1ccccc1CON=C(C)c1cccc(C(F)(F)F)c1", "note": "[(C.4), trifloxystrobin]", "values": [{"measurement": "Efficacy in % found", "setting": "Septoria tritici; Table G2, 21 days after inoculation, 20 ppm a.i.", "result": 75, "unit": "%"}, {"measurement": "Efficacy in % found", "setting": "Alternaria solani; [11]", "result": 30, "unit": "%"}, {"measurement": "Efficacy in % found", "setting": "Alternaria solani; [7]", "result": 73, "unit": "%"}, {"measurement": "Efficacy in % found", "setting": "Phakopsora pachyrhizi; [8]", "result": 0, "unit": "%"}, {"measurement": "Efficacy in % found", "setting": "Leptosphaeria nodorum; 40 ppm a.i.", "result": 14, "unit": "%"}, {"measurement": "Efficacy in % found", "setting": "[1]; [9]", "result": 11, "unit": "%"}]}]}
